# Data published in US10450615B2, “Methods and compositions for detecting gastrointestinal and other cancers” (Case Western Reserve University, priority 2003, dated 2019).
# System: vimentin gene expression in colon cancer cell lines
# Assay: RT-PCR of vimentin expression in colon cancer cell lines after 5-azacytidine treatment
# Type: cell-based, human
# Conditions: FIG. 2, cell lines with vimentin DNA methylation, optimal tolerated doses ranging from 1 μg/ml to 3 μg/ml, reactivated in V400, V429, V503, RCA, V5, RKO, V432, V703, V457
# Protocol: The cultures were grown and treated as described previously (Veigl, et al., 1998, Proc. Natl. Acad. Sci. USA, 95:8698-8702). The optimal tolerated doses were determined for each treated line, and two doses were used for some lines, ranging from 1 μg/ml to 3 μg/ml.
# To establish that methylation was responsible for silencing vimentin gene expression, cell lines with vimentin DNA methylation were treated with 5-azacytidine (5-azaC), a demethylating agent.
smiles,measurement,value
"Nc1ncn([C@@H]2O[C@H](CO)[C@@H](O)[C@H]2O)c(=O)n1 [5-azaC, 5-azacytidine]",colon cancer cell lines in which vimentin expression was reactivated (induced),9 of 12
